Assay results published in PubChem BioAssay AID2060903 (Molecular Pharmacology Branch, DTP, NCI, 2025).
pIC50: −log10 of the molar value.

Tested on: 377384-186-R-J1-PDC complex spheroid viability
Test: Anticancer human tumor 377384-186-R-J1-PDC patient-derived pancreatic carcinoma cell line growth inhibition [RAS]
Details: for pIC50: curve of first compound; for viability, T/C: stronger effect = lower value
From the text: RAS pathway inhibitors in Combinations in Complex Spheroids
A high-throughput screen of multi-cell type tumor spheroids was designed to identify active combinations of RAS pathway inhibitors and targeted small molecules. Complex spheroids include a stromal component modeled by human endothelial cells (HUVEC) and fibroblasts modeled by human mesenchymal stem cells (MSCs). The concentration ranges selected for each drug and investigational agent were based upon clinically achievable concentrations if the clinical Cmax of the agent was known.
Compounds. The drugs and investigational agents: abemaciclib (NSC768073), cobimetinib (NSC768068), divarasib (GDC6063, NSC841802), docetaxel (NSC628503), GDC-1971 (RLY-1971, NSC841576), gemcitabine (NSC613327), inavolisib (NSC800729), ipatasertib (NSC767898), KB-0742 (NSC834161), MRTX-1133 (NSC836407), osimertinib (NSC779217), RMC-4630 (NSC839698), RMC-6236 (NSC851965), RMC-6291 (NSC852671), Ro-3306 (NSC812927), sapanisertib (NSC764658), SN-38 (NSC673596), staurosporine (NSC755774), SY5609 (NSC837396), and tovorafenib (DAY101, NSC766906), were obtained from the National Cancer Institute (NCI) Developmental Therapeutics Program Chemical Repository. The FDA-approved anticancer drug set is available from the NCI Developmental Therapeutics Program. […] The stock solutions were prepared in dimethyl sulfoxide (DMSO, Sigma-Aldrich, St. Louis, MO, cat. D2650) at 800-fold the tested concentration and stored at -70 degrees C prior to their use. All drugs and investigational agents were tested over a range starting from a high concentration at or near the clinical Cmax and decreasing in half-log increments. If the clinical Cmax for an agent had not been determined, the highest concentration tested was 10 microM.
Cell Culture. All cells were maintained in an incubator at 37 degrees C and 5% CO2 with 95% humidity. The PDC lines were cultured according to standard operating procedures established by the NCI PDMR. All PDCs were thawed and cultured in Matrigel-coated flasks prepared with a working solution of 1X Ham's F-12 nutrient mix, without supplementation (Invitrogen, Waltham, MA, cat. 11765054), 100 U/mL penicillin-streptomycin (Invitrogen, cat. 15140122), and 2.5% Matrigel (Corning Inc., Corning, NY, cat. 354248) for the first three passages. The 362531-283-R-J2-PDC and 782815-120-R-J1-PDC lines were cultured in 6C/Colon 1B media, which includes advanced DMEM/F-12 (Thermo Fisher Scientific, cat. 12634028), 10 mM HEPES (Thermo Fisher Scientific, cat. 15630080), 1X GlutaMAX supplement (Thermo Fisher Scientific, cat. 35050061), 0.1 mg/mL primocin (InvivoGen, San Diego, CA, cat. ant-pm-2), 10% defined fetal bovine serum, heat inactivated (HyClone Laboratories Inc., Logan, UT, cat. SH30070.03HI), 50% L-WRN conditioned media (ATCC, cat. CRL-3276), 1.25 mM N-Acetyl-L-cysteine (Sigma-Aldrich, cat. A9165), 10 mM nicotinamide (Sigma-Aldrich, cat. N0636), 1X B-27 supplement (Thermo Fisher Scientific, cat. 17504044), 1X N-2 supplement (Thermo Fisher Scientific, cat. 17502048), 50 ng/mL human EGF (Thermo Fisher Scientific, cat. PHG0311), and 10 microM Y-27632 dihydrochloride (Tocris Bioscience, cat. 1254). The K12877-001-R-J1-PDC line was cultured in 6I media, which includes all 6C/Colon 1B media plus 10 ng/mL human FGF-10 (PeproTech, cat. 100-26), 1 ng/mL human FGF-2 (PeproTech, cat. 100-18B), 1 µM prostaglandin E2 (Tocris Bioscience, cat. 2296), […] hydrocortisone (Sigma-Aldrich, cat. H4001), and […] bovine insulin (Sigma-Aldrich, cat. I6634). The K86415-001-R-J1-PDC line was cultured in 6D media, which includes all 6C/Colon 1B media components minus the L-WRN conditioned media. The 485176-168-R4-J1-PDC was cultured in PANC media, which includes all 6C/Colon 1B media plus 100 ng/mL human FGF-10 (PeproTech, cat. 100-26), 500 nM SB-431542 (Selleckchem, cat. S1067), and 10 nM gastrin (Tocris Bioscience, cat. 3006). […]
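Further: spheroids exposed to compounds for seven days before readout.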

CCc1c2c(nc3ccc(O)cc13)-c1cc3c(c(=O)n1C2)COC(=O)[C@]3(O)CC + C=CC(=O)N1CCN(c2nc(OCC3CCCN3C)nc3c(F)c(-c4nc(N)cc(C)c4C(F)(F)F)c(Cl)cc23)C(C)C1
pIC50 (second compound 0.00316 µM): 8.81 | pIC50 (second compound 0.01 µM): 8.85 | pIC50 (second compound 0.0316 µM): 8.85 | pIC50 (second compound 0.1 µM): 8.91 | pIC50 (second compound 0.316 µM): 8.86 | pIC50 (second compound 1 µM): 8.93 | viability, T/C (second compound 0.00316 µM, first compound 0.000949 µM): 62.2% | viability, T/C (second compound 0.00316 µM, first compound 0.003 µM): 33.5% | viability, T/C (second compound 0.00316 µM, first compound 0.00949 µM): 14.6% | viability, T/C (second compound 0.00316 µM, first compound 0.03 µM): 6.38% | viability, T/C (second compound 0.00316 µM, first compound 0.0949 µM): 2.5% | viability, T/C (second compound 0.00316 µM, first compound 0.3 µM): 1.05% | viability, T/C (second compound 0.01 µM, first compound 0.000949 µM): 59% | viability, T/C (second compound 0.01 µM, first compound 0.003 µM): 31.9% | viability, T/C (second compound 0.01 µM, first compound 0.00949 µM): 18.1% | viability, T/C (second compound 0.01 µM, first compound 0.03 µM): 5.58% | viability, T/C (second compound 0.01 µM, first compound 0.0949 µM): 2.2% | viability, T/C (second compound 0.01 µM, first compound 0.3 µM): 1.1% | viability, T/C (second compound 0.0316 µM, first compound 0.000949 µM): 61% | viability, T/C (second compound 0.0316 µM, first compound 0.003 µM): 28.6% | viability, T/C (second compound 0.0316 µM, first compound 0.00949 µM): 14% | viability, T/C (second compound 0.0316 µM, first compound 0.03 µM): 6.21% | viability, T/C (second compound 0.0316 µM, first compound 0.0949 µM): 2.11% | viability, T/C (second compound 0.0316 µM, first compound 0.3 µM): 1.21% | viability, T/C (second compound 0.1 µM, first compound 0.000949 µM): 55.5% | viability, T/C (second compound 0.1 µM, first compound 0.003 µM): 32.2% | viability, T/C (second compound 0.1 µM, first compound 0.00949 µM): 15.7% | viability, T/C (second compound 0.1 µM, first compound 0.03 µM): 4.22% | viability, T/C (second compound 0.1 µM, first compound 0.0949 µM): 2.88% | viability, T/C (second compound 0.1 µM, first compound 0.3 µM): 0.95% | viability, T/C (second compound 0.316 µM, first compound 0.000949 µM): 57.9% | viability, T/C (second compound 0.316 µM, first compound 0.003 µM): 33.1% | viability, T/C (second compound 0.316 µM, first compound 0.00949 µM): 17.6% | viability, T/C (second compound 0.316 µM, first compound 0.03 µM): 6.72% | viability, T/C (second compound 0.316 µM, first compound 0.0949 µM): 2.76% | viability, T/C (second compound 0.316 µM, first compound 0.3 µM): 1% | viability, T/C (second compound 1 µM, first compound 0.000949 µM): 53.6% | viability, T/C (second compound 1 µM, first compound 0.003 µM): 33.9% | viability, T/C (second compound 1 µM, first compound 0.00949 µM): 18.9% | viability, T/C (second compound 1 µM, first compound 0.03 µM): 7.03% | viability, T/C (second compound 1 µM, first compound 0.0949 µM): 2.97% | viability, T/C (second compound 1 µM, first compound 0.3 µM): 1.13%

C[C@@H](NC(=O)c1ncnc(N)c1Cl)c1ncc(C(=O)Nc2cc(C(F)(F)F)c(Cl)cn2)s1 + CCn1c(-c2cccnc2C(C)OC)c2c3cc(ccc31)N1CCOC(CC(NC(=O)C(C(C)C)N(C)C(=O)C3(F)CCN(C(=O)C#CC(C)(C)N(C)C)CC3)C(=O)N3CCCC(N3)C(=O)OCC(C)(C)C2)C1
pIC50 (second compound 0.000949 µM): < 5.00 | pIC50 (second compound 0.003 µM): < 5.00 | pIC50 (second compound 0.00949 µM): < 5.00 | pIC50 (second compound 0.03 µM): < 5.00 | pIC50 (second compound 0.0949 µM): < 5.00 | pIC50 (second compound 0.3 µM): < 5.00 | viability, T/C (second compound 0.000949 µM, first compound 0.0316 µM): 106% | viability, T/C (second compound 0.000949 µM, first compound 0.1 µM): 109% | viability, T/C (second compound 0.000949 µM, first compound 0.316 µM): 113% | viability, T/C (second compound 0.000949 µM, first compound 1 µM): 133% | viability, T/C (second compound 0.000949 µM, first compound 3.16 µM): 128% | viability, T/C (second compound 0.000949 µM, first compound 10 µM): 111% | viability, T/C (second compound 0.003 µM, first compound 0.0316 µM): 102% | viability, T/C (second compound 0.003 µM, first compound 0.1 µM): 104% | viability, T/C (second compound 0.003 µM, first compound 0.316 µM): 120% | viability, T/C (second compound 0.003 µM, first compound 1 µM): 134% | viability, T/C (second compound 0.003 µM, first compound 3.16 µM): 127% | viability, T/C (second compound 0.003 µM, first compound 10 µM): 108% | viability, T/C (second compound 0.00949 µM, first compound 0.0316 µM): 98% | viability, T/C (second compound 0.00949 µM, first compound 0.1 µM): 114% | viability, T/C (second compound 0.00949 µM, first compound 0.316 µM): 106% | viability, T/C (second compound 0.00949 µM, first compound 1 µM): 129% | viability, T/C (second compound 0.00949 µM, first compound 3.16 µM): 150% | viability, T/C (second compound 0.00949 µM, first compound 10 µM): 108% | viability, T/C (second compound 0.03 µM, first compound 0.0316 µM): 110% | viability, T/C (second compound 0.03 µM, first compound 0.1 µM): 106% | viability, T/C (second compound 0.03 µM, first compound 0.316 µM): 129% | viability, T/C (second compound 0.03 µM, first compound 1 µM): 115% | viability, T/C (second compound 0.03 µM, first compound 3.16 µM): 142% | viability, T/C (second compound 0.03 µM, first compound 10 µM): 103% | viability, T/C (second compound 0.0949 µM, first compound 0.0316 µM): 96.8% | viability, T/C (second compound 0.0949 µM, first compound 0.1 µM): 98.5% | viability, T/C (second compound 0.0949 µM, first compound 0.316 µM): 113% | viability, T/C (second compound 0.0949 µM, first compound 1 µM): 118% | viability, T/C (second compound 0.0949 µM, first compound 3.16 µM): 130% | viability, T/C (second compound 0.0949 µM, first compound 10 µM): 99.6% | viability, T/C (second compound 0.3 µM, first compound 0.0316 µM): 88.1% | viability, T/C (second compound 0.3 µM, first compound 0.1 µM): 89.3% | viability, T/C (second compound 0.3 µM, first compound 0.316 µM): 85.5% | viability, T/C (second compound 0.3 µM, first compound 1 µM): 95.9% | viability, T/C (second compound 0.3 µM, first compound 3.16 µM): 108% | viability, T/C (second compound 0.3 µM, first compound 10 µM): 82.4%
